# Source: patent US20070293542A1, “Selective Cox-2 Inhibitors” (priority 2003, published 2007)
# Legend:
# ovine COX-1 = target: T1, ovine COX-1 (Ovis aries, UniProt P05979); assay: COX-1 purified enzyme assay (Cayman Chemical kit, PGH2 production detected as PGF2α by EIA); type: biochemical; conditions: purified ovine COX-1; read-out: IC50 for inhibition of COX-1
# T1 construct: purchased Cayman Chemical (Ann Arbor, Mich.)
# T1 sequence (P05979 25-600): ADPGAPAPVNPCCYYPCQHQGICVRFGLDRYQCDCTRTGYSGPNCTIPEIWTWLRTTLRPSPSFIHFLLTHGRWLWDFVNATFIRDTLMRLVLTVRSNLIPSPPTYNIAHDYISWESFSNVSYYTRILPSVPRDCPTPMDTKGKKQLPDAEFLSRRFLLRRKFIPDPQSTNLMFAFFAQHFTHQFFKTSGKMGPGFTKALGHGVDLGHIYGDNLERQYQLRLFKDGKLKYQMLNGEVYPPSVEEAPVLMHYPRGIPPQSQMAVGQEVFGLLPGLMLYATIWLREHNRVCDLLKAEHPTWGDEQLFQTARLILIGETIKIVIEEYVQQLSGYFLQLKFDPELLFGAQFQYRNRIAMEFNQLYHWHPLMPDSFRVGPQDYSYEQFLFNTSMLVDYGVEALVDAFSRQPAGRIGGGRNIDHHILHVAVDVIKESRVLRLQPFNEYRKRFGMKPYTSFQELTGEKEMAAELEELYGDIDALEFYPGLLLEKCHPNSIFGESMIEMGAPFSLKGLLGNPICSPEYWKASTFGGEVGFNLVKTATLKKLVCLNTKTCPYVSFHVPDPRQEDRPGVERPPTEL
# From the text: (§1) Because COX-1 and COX-2 convert arachidonic acid to prostaglandin H2 (PGH2), one can assess COX inhibitory activity of a test compound by measuring the effect of the compound on PGH2 production in the presence of purified COX-1 enzyme and, in a separate assay, in the presence of purified COX-2 enzyme. In this assay, the production of PGH2 can be measured by reducing PGH2 to prostaglandin F2α (PGF2α) with SnCl2 and then detecting PGF2α by enzyme immunoassay (EIA) using a suitable antibody.
# Using the methods described above, the inhibition of human COX-2 and ovine COX-1 by desbenzoylindomethacin was measured.
# human COX-2 = target: T2, human COX-2 (Homo sapiens, UniProt P35354); assay: COX-2 purified enzyme assay (Cayman Chemical kit, PGH2 production detected as PGF2α by EIA); type: biochemical; conditions: for COX-2 selectivity (IC50 for COX-1/IC50 for COX-2): ovine COX-1 vs human COX-2, purified enzymes; for IC50: purified human COX-2, read-out: IC50 for inhibition of COX-2
# T2 construct: purchased Cayman Chemical (Ann Arbor, Mich.)
# T2 sequence (P35354 18-604): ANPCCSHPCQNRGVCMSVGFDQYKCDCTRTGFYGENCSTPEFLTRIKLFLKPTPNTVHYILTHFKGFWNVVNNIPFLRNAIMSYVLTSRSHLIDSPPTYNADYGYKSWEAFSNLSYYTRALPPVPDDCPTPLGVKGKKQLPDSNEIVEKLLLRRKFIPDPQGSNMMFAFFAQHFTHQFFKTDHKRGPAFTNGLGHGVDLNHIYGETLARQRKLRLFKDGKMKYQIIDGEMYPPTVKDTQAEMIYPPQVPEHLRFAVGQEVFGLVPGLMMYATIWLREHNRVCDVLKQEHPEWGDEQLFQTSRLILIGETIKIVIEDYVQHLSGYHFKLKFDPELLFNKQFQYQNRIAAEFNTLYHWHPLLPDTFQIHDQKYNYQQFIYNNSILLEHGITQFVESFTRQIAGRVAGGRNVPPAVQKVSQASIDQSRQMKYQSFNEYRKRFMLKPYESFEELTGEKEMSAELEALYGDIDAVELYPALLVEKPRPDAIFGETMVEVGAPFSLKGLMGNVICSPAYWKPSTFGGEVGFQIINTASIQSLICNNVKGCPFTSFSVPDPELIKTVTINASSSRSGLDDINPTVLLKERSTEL
# From the text: as §1, with “. Because” for “Because”
# . Using the methods described above, the inhibition of human COX-2 and ovine COX-1 by desbenzoylindomethacin was measured. […]
# prostaglandin synthesis = conditions: reported by Shen and Winter 1977; cited from earlier work
melting point,IC50 (ovine COX-1),potency reduced relative to indomethacin (human COX-2; COX-1 and COX-2 purified enzyme assays),COX-2 selectivity (IC50 for COX-1/IC50 for COX-2) (human COX-2),IC50 (human COX-2),SMILES,ability to inhibit prostaglandin synthesis (prostaglandin synthesis)
186 to 188 °C,,,,,"Cc1c(CC(=O)O)c2cc(O)ccc2n1C(=O)c1ccccc1 [compound 5, (1-benzoyl-5-hydroxy-2-methyl-1H-indol-3-yl)acetic acid]",
159 to 161 °C,,,,,"Cc1c(CC(=O)O)c2cc(O)c(F)cc2n1C(=O)c1ccccc1 [compound 12, (1-benzoyl-6-fluoro-5-hydroxy-2-methyl-1H-indol-3-yl)acetic acid]",
,20 µM,~100 fold,1.6,12 µM,COc1ccc2[nH]c(C)c(CC(=O)O)c2c1 [desbenzoylindomethacin],
,15 µM,,50-150,0.1 to 0.3 µM,"Cc1c(CC(=O)O)c2cc(O)ccc2n1C(=O)c1ccc(Cl)cc1 [desmethylindomethacin, 1-(p-Chlorobenzoyl)-5-hydroxy-2-methylindole-3-acetic acid]",some ability to inhibit prostaglandin synthesis
